In patent US6737383B1, “Herbicidal oxadiazolidines” (priority 1999, dated 2004):

Experiments:
bedstraw = assay: Test B pre/postemergence bedstraw; format: in vivo, Galium aparine
In short: (§1)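 Herbicidal effect was estimated by eye on a ten-point control scale after plants spent twelve to sixteen days in a greenhouse following soil or foliar treatment. Foliar sprays targeted plants at one to four leaves; all doses were formulated in a non-phytotoxic solvent with surfactant.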

surinam grass = assay: Test B pre/postemergence surinam grass; format: in vivo, Brachiaria decumbens
In short: as §1

corn = assay: Test B pre/postemergence corn; format: in vivo, Zea mays
In short: as §1

crabgrass = assay: Test B pre/postemergence crabgrass; format: in vivo, Digitaria sanguinalis
In short: as §1

winter wheat [1] = assay: Test E winter wheat; format: in vivo, Triticum aestivum; settings: Postemergence; for Wheat (winter) plant response rating: Rate 250 g/ha
In short: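 For postemergence, sowings are timed so plants reach the 1- to 4-leaf stage at spraying. Test compound is applied in a surfactant-containing solvent mixture that is non-phytotoxic. Response is judged by eye against untreated controls after approximately 21 to 28 days.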

blackgrass = assay: Test E blackgrass; format: in vivo, Alopecurus myosuroides; settings: Preemergence; for Blackgrass plant response rating (0 to 100 scale): Rate 250 g/ha
green foxtail = assay: Test E green foxtail; format: in vivo, Setaria viridis; settings: Preemergence; for Green foxtail plant response rating (0 to 100 scale): Rate 250 g/ha
Italian ryegrass = assay: Test E Italian ryegrass; format: in vivo, Lolium multiflorum; settings: Preemergence; for I. Ryegrass plant response rating (0 to 100 scale): Rate 250 g/ha
winter wheat [2] = assay: Test E winter wheat; format: in vivo, Triticum aestivum; settings: Preemergence; for Wheat (winter) plant response rating (0 to 100 scale): Rate 250 g/ha
wild oat = assay: Test E wild oat; format: in vivo, Avena fatua; settings: Preemergence; for Wild oat plant response rating (0 to 100 scale): Rate 250 g/ha
winter barley = assay: Test E winter barley; format: in vivo, Hordeum vulgare; settings: Preemergence; for Barley (winter) plant response rating (0 to 100 scale): Rate 250 g/ha
[3] = Preemergence, Rate 62 g/ha, scale of 0 to 10 where 0 is no effect and 10 is complete control
[4] = Preemergence, Rate 250 g/ha, scale of 0 to 10 where 0 is no effect and 10 is complete control
[5] = Preemergence, Rate 500 g/ha, scale of 0 to 10 where 0 is no effect and 10 is complete control
[6] = Rate 62 g/ha, Postemergence, scale of 0 to 10 where 0 is no effect and 10 is complete control
[7] = Rate 125 g/ha, Postemergence, scale of 0 to 10 where 0 is no effect and 10 is complete control
[8] = Rate 125 g/ha, Preemergence, scale of 0 to 10 where 0 is no effect and 10 is complete control
[9] = Rate 250 g/ha, Postemergence, scale of 0 to 10 where 0 is no effect and 10 is complete control
[10] = Rate 500 g/ha, Postemergence, scale 0 to 10, 0 no effect, 10 complete control
[11] = 0 to 100 scale where 0 is no effect and 100 is complete control
[12] = Rate 500 g/ha, 0 to 100 scale, 0 is no effect, 100 is complete control
[13] = Rate 500 g/ha, 0 to 100 scale where 0 is no effect and 100 is complete control
[14] = Rate 1000 g/ha, 0 to 100 scale where 0 is no effect and 100 is complete control
[15] = Rate 125 g/ha, 0 to 100 scale (0 no effect, 100 complete control)
[16] = Rate 1000 g/ha, 0 to 100 scale, 0 no effect, 100 complete control
[17] = Rate 62 g/ha, Postemergence, scale 0 to 10 (0 no effect, 10 complete control)
[18] = Rate 500 g/ha, 0 to 100 scale (0 no effect, 100 complete control)

## CC(C)N(C(=O)n1oc(=O)n(Cc2ccccn2)c1=O)c1ccc(F)cc1 [Compound 267]
bedstraw; [3]
  Bedstraw plant response rating: 0
bedstraw; [4]
  Bedstraw plant response rating: 0
bedstraw; [5]
  Plant response rating, Bedstraw: 2
bedstraw; [6]
  Bedstraw plant response rating: 0
bedstraw; [7]
  Bedstraw plant response rating: 0
bedstraw; [8]
  Bedstraw plant response rating: 0
bedstraw; [9]
  Plant response rating, Bedstraw: 4
bedstraw; [10]
  Bedstraw plant response rating: 7
Surinam grass; [3]
  B. signalgrass plant response rating: 0
Surinam grass; [4]
  B. signalgrass plant response rating: 0
Surinam grass; [5]
  Plant response rating, B. signalgrass: 9
Surinam grass; [6]
  B. signalgrass plant response rating: 0
Surinam grass; [7]
  B. signalgrass plant response rating: 0
Surinam grass; [8]
  B. signalgrass plant response rating: 0
Surinam grass; [9]
  Plant response rating, B. signalgrass: 0
Surinam grass; [10]
  B. signalgrass plant response rating: 3
corn; [3]
  Corn plant response rating: 0
corn; [4]
  Corn plant response rating: 2
corn; [5]
  Plant response rating, Corn: 3
corn; [6]
  Corn plant response rating: 0
corn; [7]
  Corn plant response rating: 0
corn; [8]
  Corn plant response rating: 0
corn; [9]
  Plant response rating, Corn: 0
corn; [10]
  Corn plant response rating: 0
crabgrass; [3]
  Crabgrass plant response rating: 2
crabgrass; [4]
  Crabgrass plant response rating: 1
crabgrass; [5]
  Plant response rating, Crabgrass: 8
crabgrass; [7]
  Crabgrass plant response rating: 0
crabgrass; [8]
  Crabgrass plant response rating: 0
crabgrass; [9]
  Plant response rating, Crabgrass: 3
crabgrass; [10]
  Crabgrass plant response rating: 7
Winter wheat [1]; [11]
  Wheat (winter) plant response rating: 70
Winter wheat [1]; [12]
  Plant response rating, Wheat (winter): 70
blackgrass
  Blackgrass plant response rating (0 to 100 scale): 50
blackgrass; [13]
  Plant response rating, Blackgrass: 60
Green foxtail
  Green foxtail plant response rating (0 to 100 scale): 100
Green foxtail; [13]
  Plant response rating, Green foxtail: 100
Italian ryegrass
  I. Ryegrass plant response rating (0 to 100 scale): 50
Italian ryegrass; [13]
  Plant response rating, I. Ryegrass: 50
Winter wheat [2]
  Wheat (winter) plant response rating (0 to 100 scale): 55
Winter wheat [2]; [13]
  Plant response rating, Wheat (winter): 70
Wild oat
  Wild oat plant response rating (0 to 100 scale): 55
Wild oat; [13]
  Plant response rating, Wild oat: 70
Winter barley
  Barley (winter) plant response rating (0 to 100 scale): 30
Winter barley; [13]
  Plant response rating, Barley (winter): 70

## CC(C)N(C(=O)n1oc(=O)n(C2CCCC2)c1=O)c1ccc(F)cc1 [Compound 271]
bedstraw; [3]
  Bedstraw plant response rating: 3
bedstraw; [4]
  Bedstraw plant response rating: 10
bedstraw; [5]
  Plant response rating, Bedstraw: 10
bedstraw; [6]
  Bedstraw plant response rating: 4
bedstraw; [7]
  Bedstraw plant response rating: 6
bedstraw; [8]
  Bedstraw plant response rating: 10
bedstraw; [9]
  Plant response rating, Bedstraw: 8
bedstraw; [10]
  Bedstraw plant response rating: 8
Surinam grass; [3]
  B. signalgrass plant response rating: 8
Surinam grass; [4]
  B. signalgrass plant response rating: 8
Surinam grass; [5]
  Plant response rating, B. signalgrass: 10
Surinam grass; [6]
  B. signalgrass plant response rating: 0
Surinam grass; [7]
  B. signalgrass plant response rating: 0
Surinam grass; [8]
  B. signalgrass plant response rating: 8
Surinam grass; [9]
  Plant response rating, B. signalgrass: 2
Surinam grass; [10]
  B. signalgrass plant response rating: 5
corn; [3]
  Corn plant response rating: 0
corn; [4]
  Corn plant response rating: 0
corn; [5]
  Plant response rating, Corn: 3
corn; [6]
  Corn plant response rating: 0
corn; [7]
  Corn plant response rating: 0
corn; [8]
  Corn plant response rating: 0
corn; [9]
  Plant response rating, Corn: 0
corn; [10]
  Corn plant response rating: 0
crabgrass; [3]
  Crabgrass plant response rating: 3
crabgrass; [4]
  Crabgrass plant response rating: 7
crabgrass; [5]
  Plant response rating, Crabgrass: 8
crabgrass; [7]
  Crabgrass plant response rating: 1
crabgrass; [8]
  Crabgrass plant response rating: 5
crabgrass; [9]
  Plant response rating, Crabgrass: 1
crabgrass; [10]
  Crabgrass plant response rating: 5
Winter wheat [1]; Rate 125 g/ha, 0 to 100 scale, 0 is no effect, 100 is complete control
  Plant response rating, Wheat (winter): 10
Winter wheat [1]; [14]
  Plant response rating, Wheat (winter): 0
Winter wheat [1]; [11]
  Wheat (winter) plant response rating: 10
Winter wheat [1]; [12]
  Plant response rating, Wheat (winter): 0
blackgrass; [15]
  Plant response rating, Blackgrass: 30
blackgrass
  Blackgrass plant response rating (0 to 100 scale): 100
blackgrass; [13]
  Plant response rating, Blackgrass: 80
blackgrass; [16]
  Plant response rating, Blackgrass: 100
Green foxtail; [15]
  Plant response rating, Green foxtail: 70
Green foxtail
  Green foxtail plant response rating (0 to 100 scale): 100
Green foxtail; [13]
  Plant response rating, Green foxtail: 100
Green foxtail; [16]
  Plant response rating, Green foxtail: 100
Italian ryegrass; [15]
  Plant response rating, I. Ryegrass: 60
Italian ryegrass
  I. Ryegrass plant response rating (0 to 100 scale): 100
Italian ryegrass; [13]
  Plant response rating, I. Ryegrass: 85
Italian ryegrass; [16]
  Plant response rating, I. Ryegrass: 100
Winter wheat [2]; [15]
  Plant response rating, Wheat (winter): 30
Winter wheat [2]
  Wheat (winter) plant response rating (0 to 100 scale): 60
Winter wheat [2]; [13]
  Plant response rating, Wheat (winter): 50
Winter wheat [2]; [16]
  Plant response rating, Wheat (winter): 75
Wild oat; [15]
  Plant response rating, Wild oat: 50
Wild oat
  Wild oat plant response rating (0 to 100 scale): 60
Wild oat; [13]
  Plant response rating, Wild oat: 65
Wild oat; [16]
  Plant response rating, Wild oat: 60
Winter barley; [15]
  Plant response rating, Barley (winter): 35
Winter barley
  Barley (winter) plant response rating (0 to 100 scale): 45
Winter barley; [13]
  Plant response rating, Barley (winter): 50
Winter barley; [16]
  Plant response rating, Barley (winter): 60

## CC1Cc2cccc(-n3c(=O)on(C(=O)N(c4ccc(F)cc4)C(C)C)c3=O)c2O1 (centres unmarked) [Compound 281]
bedstraw; [3]
  Bedstraw plant response rating: 0
bedstraw; [4]
  Bedstraw plant response rating: 6
bedstraw; [5]
  Plant response rating, Bedstraw: 10
bedstraw; [8]
  Bedstraw plant response rating: 3
Surinam grass; [3]
  B. signalgrass plant response rating: 0
Surinam grass; [4]
  B. signalgrass plant response rating: 0
Surinam grass; [5]
  Plant response rating, B. signalgrass: 0
Surinam grass; [17]
  B. signalgrass plant response rating: 0
Surinam grass; [7]
  B. signalgrass plant response rating: 0
Surinam grass; [8]
  B. signalgrass plant response rating: 0
Surinam grass; [9]
  Plant response rating, B. signalgrass: 0
Surinam grass; [10]
  B. signalgrass plant response rating: 0
corn; [3]
  Corn plant response rating: 0
corn; [4]
  Corn plant response rating: 0
corn; [5]
  Plant response rating, Corn: 0
corn; [17]
  Corn plant response rating: 0
corn; [7]
  Corn plant response rating: 0
corn; [8]
  Corn plant response rating: 0
corn; [9]
  Plant response rating, Corn: 0
corn; [10]
  Corn plant response rating: 0
crabgrass; [3]
  Crabgrass plant response rating: 2
crabgrass; [4]
  Crabgrass plant response rating: 10
crabgrass; [5]
  Plant response rating, Crabgrass: 10
crabgrass; [17]
  Crabgrass plant response rating: 0
crabgrass; [7]
  Crabgrass plant response rating: 0
crabgrass; [8]
  Crabgrass plant response rating: 10
crabgrass; [9]
  Plant response rating, Crabgrass: 0
crabgrass; [10]
  Crabgrass plant response rating: 0
Winter wheat [1]; [14]
  Plant response rating, Wheat (winter): 80
Winter wheat [1]; [11]
  Wheat (winter) plant response rating: 55
Winter wheat [1]; [12]
  Plant response rating, Wheat (winter): 70
blackgrass
  Blackgrass plant response rating (0 to 100 scale): 50
blackgrass; [16]
  Plant response rating, Blackgrass: 50
Green foxtail
  Green foxtail plant response rating (0 to 100 scale): 100
Green foxtail; [18]
  Plant response rating, Green foxtail: 100
Green foxtail; [16]
  Plant response rating, Green foxtail: 100
Italian ryegrass
  I. Ryegrass plant response rating (0 to 100 scale): 60
Italian ryegrass; [18]
  Plant response rating, I. Ryegrass: 60
Italian ryegrass; [16]
  Plant response rating, I. Ryegrass: 60
Winter wheat [2]
  Wheat (winter) plant response rating (0 to 100 scale): 60
Winter wheat [2]; [18]
  Plant response rating, Wheat (winter): 65
Winter wheat [2]; [16]
  Plant response rating, Wheat (winter): 80
Wild oat
  Wild oat plant response rating (0 to 100 scale): 70
Wild oat; [18]
  Plant response rating, Wild oat: 65
Wild oat; [16]
  Plant response rating, Wild oat: 80
Winter barley
  Barley (winter) plant response rating (0 to 100 scale): 70
Winter barley; [18]
  Plant response rating, Barley (winter): 70
Winter barley; [16]
  Plant response rating, Barley (winter): 80
